From US20210015098A1, “MOLECULES HAVING PESTICIDAL UTILITY, AND INTERMEDIATES, COMPOSITIONS, AND PROCESSES, RELATED THERETO” (DOW AGROSCIENCES LLC, priority 2018, published 2021)

Tests used:
[1] = system: Cabbage Looper (Trichoplusia ni, TRIPNI); test: Bioassays on Cabbage Looper (CL), 128-well diet tray assay; assay type: in vivo; conditions: Cabbage Looper, Table ABC Biological Results, read-out: CL (rating)
Method: (§1) Certain molecules disclosed in this document were tested against BAW and CL using procedures described in the following examples. In the reporting of the results, the “BAW & CL Rating Table” was used (See Table Section).
Bioassays on CL were conducted using a 128-well diet tray assay. One to five second instar CL larvae were placed in each well (3 mL) of the diet tray that had been previously filled with 1 mL of artificial diet to which 50 μg/cm^2 of the test molecule (dissolved in 50 μL of 90:10 acetone-water mixture) had been applied (to each of eight wells) and then allowed to dry. Trays were covered with a clear self-adhesive cover, vented to allow gas exchange, and held at 25° C., 14:10 light-dark for five to seven days. Percent mortality was recorded for the larvae in each well; activity in the eight wells was then averaged. The results are indicated in the table entitled “Table ABC: Biological Results” (See Table Section).

[2] = system: Beet Armyworm (Spodoptera exigua, LAPHEG); test: Bioassays on Beet Armyworm (BAW), 128-well diet tray assay; assay type: in vivo; conditions: Beet Armyworm, Table ABC Biological Results, read-out: BAW (rating)
Method: as §1
Bioassays on BAW were conducted using a 128-well diet tray assay. One to five second instar BAW larvae were placed in each well (3 mL) of the diet tray that had been previously filled with 1 mL of artificial diet to which 50 μg/cm^2 of the test molecule (dissolved in 50 μL of 90:10 acetone-water mixture) had been applied (to each of eight wells) and then allowed to dry. Trays were covered with a clear self-adhesive cover, vented to allow gas exchange, and held at 25° C., 14:10 light-dark for five to seven days. Percent mortality was recorded for the larvae in each well; activity in the eight wells was then averaged. The results are indicated in the table entitled “Table ABC: Biological Results” (See Table Section).

SMILES	pest or weed control at 50 µg/cm2 [1] [%]	pest or weed control at 50 µg/cm2 [2] [%]
CC(C(=O)Nc1c(F)ccc(NC(=O)c2cc(NC(=O)[C@H]3[C@H](c4cc(Cl)c(Cl)c(Cl)c4)C3(Cl)Cl)ccc2Cl)c1F)S(=O)(=O)C(F)(F)F (stereo partly drawn) [F35, 2-Chloro-5-((1R,3R)-2,2-dichloro-3-(3,4,5-trichlorophenyl)cyclopropane-1-carboxamido)-N-(2,4-difluoro-3-(2-((trifluoromethyl)sulfonyl)propanamido)phenyl)benzamide]	50 to 100	50 to 100
O=C(CS(=O)(=O)CC(F)(F)F)Nc1c(F)ccc(NC(=O)c2cc(NC(=O)[C@H]3[C@H](c4ccc(F)c(C(F)(F)F)c4)C3(Cl)Cl)ccc2Cl)c1F [F44, 2-Chloro-5-((1R,3R)-2,2-dichloro-3-(4-fluoro-3-(trifluoromethyl)phenyl)cyclopropane-1-carboxamido)-N-(2,4-difluoro-3-(2-((2,22-trifluoroethyl)sulfonyl)acetamido)phenyl)benzamide]	50 to 100	50 to 100
O=C(CS(=O)(=O)C(F)(F)F)Nc1c(F)ccc(NC(=O)c2cc(NC(=O)[C@H]3[C@H](c4ccc(F)c(Cl)c4)C3(Cl)Cl)ccc2Cl)c1F [F40]	50 to 100	50 to 100
O=C(C[S+]([O-])CC(F)(F)F)Nc1c(F)ccc(NC(=O)c2cc(NC(=O)[C@H]3[C@H](c4cc(Cl)c(Cl)c(Cl)c4)C3(Cl)Cl)ccc2Cl)c1F (stereo partly drawn) [F29, 2-Chloro-5-((1R,3R)-2,2-dichloro-3-(3,4,5-trichlorophenyl)cyclopropane-1-carboxamido)-N-(2,4-difluoro-3-(2-((2,2,2-trifluoroethyl)sulfinyl)acetamido)phenyl)benzamide]	50 to 100	50 to 100
CC(C(=O)Nc1c(F)ccc(NC(=O)c2cc(NC(=O)[C@H]3[C@H](c4ccc(F)c(Cl)c4)C3(Cl)Cl)ccc2Cl)c1F)[S+]([O-])C(F)(F)F (stereo partly drawn) [F27, 2-Chloro-5-((1R,3R)-2,2-dichloro-3-(3-chloro-4-fluorophenyl)cyclopropane-1-carboxamido)-N-(2,4-difluoro-3-(2-((trifluoromethyl)sulfinyl)propanamido)phenyl)benzamide]	50 to 100	50 to 100
O=C(C[S+]([O-])CC(F)(F)F)Nc1c(F)ccc(NC(=O)c2cc(NC(=O)[C@H]3[C@H](c4ccc(Cl)c(Cl)c4)C3(Cl)Cl)ccc2Cl)c1F (stereo partly drawn) [F30, 2-chloro-5-((R,3R)-2,2-dichloro-3-(3,4-dichlorophenyl)cyclopropane-1-carboxamido)-N-(2,4-difluoro-3-(2-((2,2,2-trifluoroethyl)sulfinyl)acetamido)phenyl)benzamide]	50 to 100	50 to 100
O=C(CSC(F)(F)F)Nc1c(F)ccc(NC(=O)c2cc(NC(=O)[C@H]3[C@H](c4ccc(F)c(Cl)c4)C3(Cl)Cl)ccc2Cl)c1F [F14, 2-Chloro-5-((1R,3R)-2,2-dichloro-3-(3-chloro-4-fluorophenyl)cyclopropane-1-carboxamido)-N-(2,4-difluoro-3-(2-((trifluoromethyl)thio)acetamido)phenyl)benzamide]	50 to 100	50 to 100
O=C(CS(=O)(=O)C(F)(F)F)Nc1c(F)ccc(NC(=O)c2cc(NC(=O)[C@H]3[C@H](c4cc(Cl)c(Cl)c(Cl)c4)C3(Cl)Cl)ccc2Cl)c1F [F36, 2-Chloro-5-((1R,3R)-2,2-dichloro-3-(3,4,5-trichlorophenyl)cyclopropane-1-carboxamido)-N-(2,4-difluoro-3-(2-((trifluoromethyl)sulfonyl)acetamido)phenyl)benzamide]	50 to 100	50 to 100
CC(SC(F)(F)F)C(=O)Nc1c(F)ccc(NC(=O)c2cc(NC(=O)[C@H]3[C@H](c4ccc(F)c(Cl)c4)C3(Cl)Cl)ccc2Cl)c1F (stereo partly drawn) [F13, 2-Chloro-5-((1R,3R)-2,2-dichloro-3-(3-chloro-4-fluorophenyl)cyclopropane-1-carboxamido)-N-(2,4-difluoro-3-(2-((trifluoromethyl)thio)propanamido)phenyl)benzamide]	50 to 100	50 to 100
CSC(F)(F)C(=O)Nc1c(F)ccc(NC(=O)c2cc(NC(=O)[C@H]3[C@H](c4ccc(F)c(C(F)(F)F)c4)C3(Cl)Cl)ccc2Cl)c1F [F1, 2-Chloro-5-((1R,3R)-2,2-dichloro-3-(4-fluoro-3-(trifluoromethyl)phenyl)cyclopropane-1-carboxamido)-N-(3-(2,2-difluoro-2-(methylthio)acetamido)-2,4-difluorophenyl)benzamide]	50 to 100	50 to 100
O=C(CSC(F)(F)F)Nc1c(F)ccc(NC(=O)c2cc(NC(=O)[C@H]3[C@H](c4cc(Cl)c(Cl)c(Cl)c4)C3(Cl)Cl)ccc2Cl)c1F [F8, 2-Chloro-5-((1R,3R)-2,2-dichloro-3-(3,4,5-trichlorophenyl)cyclopropane-1-carboxamido)-N-(2,4-difluoro-3-(2-((trifluoromethyl)thio)acetamido)phenyl)benzamide]	50 to 100	50 to 100
O=C(CSC(F)(F)F)Nc1c(F)ccc(NC(=O)c2cc(NC(=O)[C@H]3[C@H](c4cccc(C(F)(F)F)c4)C3(Cl)Cl)ccc2Cl)c1F [F47, 2-Chloro-5-((1R,3R)-2,2-dichloro-3-(3-(trifluoromethyl)phenyl)cyclopropane-1-carboxamido)-N-(2,4-difluoro-3-(2-((trifluoromethyl)thio)acetamido)phenyl)benzamide]	50 to 100	50 to 100
CCS(=O)(=O)C(C)C(=O)Nc1c(F)ccc(NC(=O)c2cc(NC(=O)[C@H]3[C@H](c4ccc(F)c(C(F)(F)F)c4)C3(Cl)Cl)ccc2Cl)c1F (stereo partly drawn) [F45, 2-chloro-5-((R,3R)-2,2-dichloro-3-(4-fluoro-3-(trifluoromethyl)phenyl)cyclopropane-1-carboxamido)-N-(3-(2-(ethylsulfonyl)propanamido)-2,4-difluorophenyl)benzamide]	50 to 100	50 to 100
CC(C(=O)Nc1c(F)ccc(NC(=O)c2cc(NC(=O)[C@H]3[C@H](c4ccc(Cl)c(Cl)c4)C3(Cl)Cl)ccc2Cl)c1F)S(=O)(=O)C(F)(F)F (stereo partly drawn) [F37, 2-Chloro-5-((1R,3R)-2,2-dichloro-3-(3,4-dichlorophenyl)cyclopropane-1-carboxamido)-N-(2,4-difluoro-3-(2-((trifluoromethyl)sulfonyl)propanamido)phenyl)benzamide]	50 to 100	50 to 100
O=C(C[S+]([O-])CC(F)(F)F)Nc1c(F)ccc(NC(=O)c2cc(NC(=O)[C@H]3[C@H](c4ccc(F)c(Cl)c4)C3(Cl)Cl)ccc2Cl)c1F (stereo partly drawn) [F31, 2-Chloro-5-((1R,3R)-2,2-dichloro-3-(3-chloro-4-fluorophenyl)cyclopropane-1-carboxamido)-N-(2,4-difluoro-3-(2-((2,2,2-trifluoroethyl)sulfinyl)acetamido)phenyl)benzamide]	50 to 100	50 to 100
O=C(CS(=O)(=O)C(F)(F)F)Nc1c(F)ccc(NC(=O)c2cc(NC(=O)[C@H]3[C@H](c4ccc(Cl)c(Cl)c4)C3(Cl)Cl)ccc2Cl)c1F [F38, 2-Chloro-5-((1R,3R)-2,2-dichloro-3-(3,4-dichlorophenyl)cyclopropane-1-carboxamido)-N-(2,4-difluoro-3-(2-((trifluoromethyl)sulfonyl)acetamido)phenyl)benzamide]	50 to 100	50 to 100
